# Data reported in patent US6355785B1, “Guanosine-rich oligonucleotide integrase inhibitors” (Aronex Pharmaceuticals, Inc., priority 1993, dated 2002).
# Where two headings read alike, the source gives them in different places.
# What was measured:
# [1] = system: HIV-1 strains (SKI, RF, DV, IIIB, ADP/141); assay: microbe, parasite or virus in culture; type: cell-based; settings: Human immunodeficiency virus 1, IIIB
# HIV-1IIIB = assay: Time of drug addition study, MT-4 cells (p24); type: cell-based; settings: 100-fold IC50, MOI 1, p24 at 29 hour
# [2] = parameters: species or system cynomolgus monkeys; settings: cynomolgus monkey, in vivo
# Description: Dosing. Twelve experimentally naive cynomolgus monkeys were assigned to four groups of three animals each. Prior to dosing, each animal was lightly sedated with a combination of ketamine (1 0 mg/kg) and diazepam (0.5 mg/kg), and a catheter was introduced into the femoral artery for recording central arterial pressure. Monkeys were given a single intravenous infusion of 5, 20, or 50 mg AR177/kg or saline over ten minutes through a cephalic vein catheter using a Harvard infusion pump. Arterial blood samples were drawn at −10, +10, +20, +40, +60 and +120 minutes relative to the initiation of infusion into EDTA-containing tubes for hematology, complement factors, coagulation assay, serum chemistry, and plasma AR177 determination. At 24 hours post-infusion, blood was drawn via the femoral vein into EDTA-containing tubes for these same parameters. The concentration of AR177 in dosing solutions was confirmed post experiment by absorbance at 280 nm on a spectrophotometer. For the determination of AR177 by HPLC, the plasma fraction was obtained by low speed centrifugation of blood, and stored at −20° C. until used. Electrocardiograms (ECGs), central pressure, and heart rate were recorded continuously for 120 minutes following the initiation of doing. Table E-1 summarizes the study design. The animals were observed twice daily pharmacotoxic signs and general health beginning two days before dosing and for seven days following dosing. The monkeys were not necropsied at the end of the study.
# Hematology and coagulation parameters. The following are determined: red blood cell count and morphology, total and differential white blood cells, hemoglobin, hematocrit, prothrombin time, fibrinogen, mean cell hemoglobin, mean corpuscular volume, mean corpuscular hemoglobin concentration, platelet count, and activated partial thromboplastin time. Hematology parameters were determined at Sierra Nevada Laboratories (Reno, Nev.).
molecule,measurement,setting,value
"Cc1cn([C@H]2C[C@H](N=[N+]=[N-])[C@@H](CO)O2)c(=O)[nH]c1=O [AZT, 3′-azido-3′-deoxythymidine]",IC50,"[1]; CEM-SS, read-out: Antiviral Assay IC50 IIIB, HIV-1 IIIB, CEM-SS or MT4",2 nM
same,IC50,"[1]; CEM-SS, read-out: Antiviral Assay IC50 RF, HIV-1 RF, CEM-SS or MT4",7 nM
same,IC50,"[1]; CEM-SS, read-out: Antiviral Assay IC50 SKI, HIV-1 SKI, CEM-SS or MT4",22 nM
same,IC50,"[1]; CEM-SS, read-out: IC50 (cpe assay), RF (CEM-SS), MOI 0.01",10 nM
same,IC50,"[1]; CEM-SS, read-out: IC50 (cpe assay), RF (CEM-SS), MOI 0.02",20 nM
same,IC50,"[1]; CEM-SS, read-out: IC50 (cpe assay), RF (CEM-SS), MOI 0.04",70 nM
same,IC50,"[1]; CEM-SS, read-out: IC50 (cpe assay), RF (CEM-SS), MOI 0.64",> 10000 nM
same,IC50,"[1]; CEM-SS, read-out: IC50 (cpe assay), RF (CEM-SS), MOI 1.28",> 10000 nM
same,IC50,"[1]; CEM-SS, read-out: IC50 virus production, HIV-1 IIIB, CEM-SS",2 ± 0.3 nM
same,IC50,"[1]; CEM-SS, read-out: IC50 virus production, HIV-1 RF, CEM-SS, MOI 0.01",7 nM
same,IC50,"[1]; CEM-SS, read-out: IC50 virus production, HIV-1 SKI, CEM-SS, MOI 0.01",22 ± 0.1 nM
same,IC90,"[1]; CEM-SS, read-out: IC90 (cpe assay), RF (CEM-SS), MOI 0.16",> 10000 nM
same,IC90,"[1]; CEM-SS, read-out: IC90 (cpe assay), RF (CEM-SS), MOI 0.32",> 10000 nM
same,IC90,"[1]; CEM-SS, read-out: IC90 (cpe assay), RF (CEM-SS), MOI 0.64",> 10000 nM
same,IC90,"[1]; CEM-SS, read-out: IC90 (cpe assay), RF (CEM-SS), MOI 1.28",> 10000 nM
same,IC50,"[1]; SUP-T1, read-out: IC50 virus production, HIV-1 DV, SUP T1",30 ± 5 nM
same,IC50,"[1]; SUP-T1, read-out: IC50 virus production, HIV-1 IIIB, SUP T1",30 ± 6 nM
same,IC50,[1]; read-out: IC50 (cpe assay),37 nM
same,IC50,"[1]; read-out: IC50 (cpe assay), IIIB (MT4), MOI 0.01",10 nM
same,IC50,"[1]; read-out: IC50 virus production, HIV-1 IIIB, AA5",< 3 nM
same,IC50,"[1]; read-out: IC50 virus production, HIV-1 IIIB, MT2",10 ± 4 nM
same,IC50,"[1]; read-out: IC50 virus production, HIV-1 RF, MT2",30 ± 5 nM
same,IC90,"[1]; read-out: IC90 (cpe assay), IIIB (MT4), MOI 0.3",3300 nM
same,% CD4,"HIV-1 infected PBMCs; IIIB, drug 0.1 μM, day 7",31%
same,% CD8,"HIV-1 infected PBMCs; IIIB, drug 0.1 μM, day 7",79%
same,% CD4,"HIV-1 infected PBMCs; IIIB, drug 1.0 μM",30%
same,% CD8,"HIV-1 infected PBMCs; IIIB, drug 1.0 μM",81%
same,% CD4,"HIV-1 infected PBMCs; IIIB, drug 5.0 μM",27%
same,% CD8,"HIV-1 infected PBMCs; IIIB, drug 5.0 μM",86%
same,% CD4,"HIV-1 infected PBMCs; MN, drug 0.1 μM",25%
same,% CD8,"HIV-1 infected PBMCs; MN, drug 0.1 μM",82%
same,% CD4,"HIV-1 infected PBMCs; MN, drug 1.0 μM",35%
same,% CD8,"HIV-1 infected PBMCs; MN, drug 1.0 μM",79%
same,% CD4,"HIV-1 infected PBMCs; MN, drug 5.0 μM",36%
same,% CD8,"HIV-1 infected PBMCs; MN, drug 5.0 μM",78%
same,% CD4,"HIV-1 infected PBMCs; N. Amer. #1, drug 0.1 μM",25%
same,% CD8,"HIV-1 infected PBMCs; N. Amer. #1, drug 0.1 μM",83%
same,% CD4,"HIV-1 infected PBMCs; N. Amer. #1, drug 1.0 μM",25%
same,% CD8,"HIV-1 infected PBMCs; N. Amer. #1, drug 1.0 μM",84%
same,% CD4,"HIV-1 infected PBMCs; N. Amer. #1, drug 5.0 μM",26%
same,% CD8,"HIV-1 infected PBMCs; N. Amer. #1, drug 5.0 μM",85%
same,% CD4,"HIV-1 infected PBMCs; N. Amer. #2, drug 0.1 μM",6%
same,% CD8,"HIV-1 infected PBMCs; N. Amer. #2, drug 0.1 μM",95%
same,% CD4,"HIV-1 infected PBMCs; N. Amer. #2, drug 1.0 μM",13%
same,% CD8,"HIV-1 infected PBMCs; N. Amer. #2, drug 1.0 μM",89%
same,% CD4,"HIV-1 infected PBMCs; N. Amer. #2, drug 5.0 μM",25%
same,% CD8,"HIV-1 infected PBMCs; N. Amer. #2, drug 5.0 μM",85%
same,% CD4,"HIV-1 infected PBMCs; RF, drug 0.1 μM",23%
same,% CD8,"HIV-1 infected PBMCs; RF, drug 0.1 μM",84%
same,% CD4,"HIV-1 infected PBMCs; RF, drug 1.0 μM",32%
same,% CD8,"HIV-1 infected PBMCs; RF, drug 1.0 μM",76%
same,% CD4,"HIV-1 infected PBMCs; RF, drug 5.0 μM",34%
same,% CD8,"HIV-1 infected PBMCs; RF, drug 5.0 μM",81%
same,% CD4,"HIV-1 infected PBMCs; SE Asia isolate, drug 0.1 μM",29%
same,% CD8,"HIV-1 infected PBMCs; SE Asia isolate, drug 0.1 μM",82%
same,% CD4,"HIV-1 infected PBMCs; SE Asia isolate, drug 1.0 μM",31%
same,% CD8,"HIV-1 infected PBMCs; SE Asia isolate, drug 1.0 μM",82%
same,% CD4,"HIV-1 infected PBMCs; SE Asia isolate, drug 5.0 μM",29%
same,% CD8,"HIV-1 infected PBMCs; SE Asia isolate, drug 5.0 μM",86%
same,delay of drug addition post-infection at which inhibitory effect is lost,HIV-1IIIB,3 or 4 hours post-infection
"5′-gtggtgggtgggtgggt-3′ (GTGGTGGGTGGGTGGGT; phosphorothioate termini, further chemistry not given here) [T30177, pPT version of parent compound I100-15, 17 mer]","anticoagulant potency, less potent than thrombin-binding aptamer oligonucleotide",[2],40 fold
same,hematology values,[2],no changes in hematology values attributable to AR177
same,delay of drug addition post-infection at which inhibitory effect is lost,HIV-1IIIB,one hour
